{"source": "patent US6890969B2", "about": "“Polymer emulsion preservation using cationic compounds” (Air Products Polymers, L.P., priority 2000, dated 2005)", "key": {"GABL": {"tested_on": "GABL", "assay": "GABL biochallenge test of preserved polymer emulsions (streak plate / RABIT), inoculations passed", "format": "cell-based, Gluconoacetobacter liquefaciens", "details": "for Inoculations Passed: PVOH-stabilized VAE emulsion, <1000 ppm vinyl acetate", "procedure": "GABL Inoculum Preparation\nA recently isolated culture of GABL was grown on potato dextrose agar slants by inoculating the agar surface. The potato dextrose agar slants were incubated for 48-72 hours at 25° C. After this incubation period, GABL cells were harvested using quarter strength Ringers solution to wash the GABL colonies off of the agar surface. The washings from each slant were combined into one sterile, Erlenmeyer flask. The number of slants and the amount of quarter strength Ringers solution used to wash off the GABL colonies was adjusted during the procedure to obtain a final microbial viable count in the range of 10^8-10^10 CFU/mL.\nRapid Automated Bacterial Impedance Technique (RABIT): supplied by Microbiology International, manufactured by Don Whitley Scientific, Ltd.\nRABIT utilizes the principal of impedance microbiology to detect and assess microbial activity in a given sample. Using the RABIT, microbial metabolism is monitored by measuring the amount of carbon dioxide produced by actively respiring microorganisms. The electrodes in the RABIT test cells are partially covered with alkaline agar containing potassium hydroxide. As inoculated test samples are monitored on the RABIT, carbon dioxide produced from microbial metabolism is absorbed by the alkaline agar resulting in a change in conductivity. Conductivity is monitored with time and the time to reach a pre-specified rate of reduction in conductivity is termed the time to detection (TTD). Therefore, the shorter the TTD, the higher the number of microorganisms present. Failure can be defined as three successive decreases in conductivity equal to or greater than a pre-specified value (−10 microSiemens is recommended by the manufacturer) at any time during the 72 hour RABIT monitoring period. Alternatively, failure can be defined as a pre-specified total change in conductivity.\nBiochallenge Test Procedure\nSamples (50 g each) of each test emulsion containing a test antimicrobial agent were inoculated with 1.0 mL of the GABL inoculum. After mixing well, the samples were then placed in a 30° C. incubator. After 1, 2, and 6 days of incubation each sample was streak plated onto potato dextrose agar to assess the level of surviving GABL microorganisms. The potato dextrose agar plates were incubated at 25° C. for 48-72 hours before assessing the growth. On the seventh day of incubation, each test emulsion sample was inoculated again with a freshly prepared GABL inoculum, mixed well, then placed back into the incubator. The samples were again streak plated onto potato dextrose agar after incubating for 1, 2, and 6 days since the second inoculation. On the fourteenth day after the test was initiated, the test emulsions were inoculated a third time with another freshly prepared GABL inoculum and then placed back into the incubator. The samples were again streak plated onto potato dextrose agar after 1, 2, 6, and 13 days of incubation since the third inoculation to assess surviving microorganisms. Test failure is defined as a microbial viable count >300 CFU/10 μL observed from the potato dextrose agar streak plate assessments.\nBiochallenge Test Procedure Via the RABIT\nA small amount of a microbial nutrient was added to each emulsion test sample (50 g) containing a test antimicrobial agent. The resulting samples were then inoculated with 1.0 mL of the GABL inoculum. After mixing well, an aliquot (5 g) of each test sample was placed into separate RABIT indirect conductivity tubes. The indirect conductivity tubes were then placed into the RABIT incubator modules set at 30° C. and the conductivity changes monitored for up to 72 hours. The remainder of each test sample was stored in a 30° C. incubator during the RABIT monitoring period. At the completion of the RABIT monitoring period, the aliquot samples were placed back into their respective sample containers. Each test sample was then re-inoculated with a freshly prepared GABL inoculum. […]"}, "mixed bacterial pool": {"tested_on": "mixed bacterial pool", "format": "cell-based", "details": "PVOH-stabilized VAE emulsion Tg 0, <1000 ppm vinyl acetate", "procedure": "The preservative efficacy of several cationic compounds in a poly(vinyl alcohol)-stabilized VAE copolymer emulsion (Tg=0) containing less than 1000 ppm vinyl acetate was assessed according to the following procedure:\nAeromonas hydrophilia, Alcaligenes faecalis, Corynebacterium ammoniagenes, Enterobacter aerogenes, Escherichia coli, Klebsiella pneumoniae, Pseudomonas aeruginosa, Proteus vulgaris, Providencia rettgeri, Pseudomonas stutzeri, Shewanella putrefaciens, Serratia liquefaciens, Acinetobacter baumannii, Burkholderia cepacia, Chryseobacterium meningosepticum, Sphingobacterium spiritivorum, Ralstonia pickettii, and GABL.\nMixed Bacterial Pool Inoculum Preparation\nEach bacterial culture was individually grown on nutrient agar slants, except GABL was grown on potato dextrose agar slants, by inoculating the agar surfaces. The nutrient agar slants were incubated for 24-48 hours at 30° C. and the potato dextrose agar slants were incubated for 48-72 hours at 25° C. After this incubation period, the cells were harvested using quarter strength Ringers solution to wash the bacterial colonies off the agar surface. The washings from all of the slants were combined into one sterile, Erlenmeyer flask. The number of slants and the amount of Ringers Solution used to wash off the bacterial colonies is adjusted during the procedure to obtain a final mixed microbial viable count in the range of 10^8-10^10 CFU/mL.\nBacterial Biochallenge Test Procedure\nThe RABIT procedures were followed as described in Example 1, except the mixed bacterial pool inoculum was used to inoculate the test samples instead of the GABL inoculum."}}, "note": "Counter-ions that a name gives are not always drawn. Like-named read-outs stand apart in the source and are kept apart here. Marks after values point to notes of the source that are not given here."}
{"smiles": "CCCCCCCCCCCCNC(=N)N", "note": "[DGH, n-dodecylguanidine hydrochloride]", "values": [{"measurement": "# of GABL Inoculations Passed", "setting": "GABL; DGH 100 ppm, emulsion VA/E, Tg 0 °C, H2O2/SFS, PVOH (first such line of Table 2)", "value": 3}, {"measurement": "# of GABL Inoculations Passed", "setting": "GABL; DGH 100 ppm, emulsion VA/E, Tg 0 °C, H2O2/SFS, PVOH (second such line of Table 2)", "value": 2}, {"measurement": "# of GABL Inoculations Passed", "setting": "GABL; DGH 100 ppm, emulsion VA/E, Tg 0 °C, H2O2/SFS, PVOH/nonionic surfactant", "value": 1}, {"measurement": "# of GABL Inoculations Passed", "setting": "GABL; DGH 100 ppm, emulsion VA/E, Tg 4 °C, KPS/SFS, Nonionic surfactant/HEC", "value": 0}, {"measurement": "# of GABL Inoculations Passed", "setting": "GABL; DGH 100 ppm, emulsion VA/E, Tg 14 °C, H2O2/SFS, PVOH", "value": 5}, {"measurement": "# of GABL Inoculations Passed", "setting": "GABL; DGH 100 ppm, emulsion VA/E, Tg 20 °C, H2O2/SFS, PVOH, stopped after 4th inoculation", "value": "≧4^b"}, {"measurement": "# of GABL Inoculations Passed", "setting": "GABL; DGH 100 ppm, emulsion VA/E, Tg −5 °C, H2O2/SFS, PVOH/nonionic surfactant", "value": 1}, {"measurement": "# of GABL Inoculations Passed", "setting": "GABL; DGH 100 ppm, emulsion VA/E, Tg −15 °C, H2O2/SFS, PVOH", "value": 2}, {"measurement": "# of GABL Inoculations Passed", "setting": "GABL; DGH 100 ppm, emulsion VA/E/MA/SVS, Tg 5 °C, KPS/SFS, Nonionic surfactant", "value": 0}, {"measurement": "# of GABL Inoculations Passed", "setting": "GABL; DGH 150 ppm, emulsion VA/E, Tg 0 °C, H2O2/SFS, PVOH (first such line of Table 2)", "value": 4}, {"measurement": "# of GABL Inoculations Passed", "setting": "GABL; DGH 150 ppm, emulsion VA/E, Tg 0 °C, H2O2/SFS, PVOH/nonionic surfactant", "value": 2}, {"measurement": "# of GABL Inoculations Passed", "setting": "GABL; DGH 150 ppm, emulsion VA/E, Tg 4 °C, KPS/SFS, Nonionic surfactant/HEC", "value": 0}, {"measurement": "# of GABL Inoculations Passed", "setting": "GABL; DGH 150 ppm, emulsion VA/E, Tg 14 °C, H2O2/SFS, PVOH, stopped after 7th inoculation", "value": "≧7^a"}, {"measurement": "# of GABL Inoculations Passed", "setting": "GABL; DGH 150 ppm, emulsion VA/E, Tg 20 °C, H2O2/SFS, PVOH, stopped after 4th inoculation", "value": "≧4^b"}, {"measurement": "# of GABL Inoculations Passed", "setting": "GABL; DGH 150 ppm, emulsion VA/E, Tg −5 °C, H2O2/SFS, PVOH/nonionic surfactant", "value": 3}, {"measurement": "# of GABL Inoculations Passed", "setting": "GABL; DGH 150 ppm, emulsion VA/E, Tg −15 °C, H2O2/SFS, PVOH", "value": 5}, {"measurement": "# of GABL Inoculations Passed", "setting": "GABL; DGH 150 ppm, emulsion VA/E/MA/SVS, Tg 5 °C, KPS/SFS, Nonionic surfactant", "value": 0}, {"measurement": "# of GABL Inoculations Passed", "setting": "GABL; DGH 200 ppm, emulsion VA/E, Tg 0 °C, H2O2/SFS, PVOH (first such line of Table 2), stopped after 7th inoculation", "value": "≧7^a"}, {"measurement": "# of GABL Inoculations Passed", "setting": "GABL; DGH 200 ppm, emulsion VA/E, Tg 0 °C, H2O2/SFS, PVOH (second such line of Table 2)", "value": 7}, {"measurement": "# of GABL Inoculations Passed", "setting": "GABL; DGH 200 ppm, emulsion VA/E, Tg 0 °C, H2O2/SFS, PVOH/nonionic surfactant", "value": 2}, {"measurement": "# of GABL Inoculations Passed", "setting": "GABL; DGH 200 ppm, emulsion VA/E, Tg 4 °C, KPS/SFS, Nonionic surfactant/HEC", "value": 0}, {"measurement": "# of GABL Inoculations Passed", "setting": "GABL; DGH 200 ppm, emulsion VA/E, Tg 8 °C, KPS/SFS, PVOH", "value": 2}, {"measurement": "# of GABL Inoculations Passed", "setting": "GABL; DGH 200 ppm, emulsion VA/E, Tg 14 °C, H2O2/SFS, PVOH, stopped after 7th inoculation", "value": "≧7^a"}, {"measurement": "# of GABL Inoculations Passed", "setting": "GABL; DGH 200 ppm, emulsion VA/E, Tg 20 °C, H2O2/SFS, PVOH, stopped after 4th inoculation", "value": "≧4^b"}, {"measurement": "# of GABL Inoculations Passed", "setting": "GABL; DGH 200 ppm, emulsion VA/E, Tg −5 °C, H2O2/SFS, PVOH/nonionic surfactant", "value": 3}, {"measurement": "# of GABL Inoculations Passed", "setting": "GABL; DGH 200 ppm, emulsion VA/E, Tg −15 °C, H2O2/SFS, PVOH, stopped after 7th inoculation", "value": "≧7^a"}, {"measurement": "# of GABL Inoculations Passed", "setting": "GABL; DGH 200 ppm, emulsion VA/E/AA, Tg 0 °C, H2O2/SFS, PVOH/nonionic surfactant", "value": 0}, {"measurement": "# of GABL Inoculations Passed", "setting": "GABL; DGH 200 ppm, emulsion VA/E/MA/SVS, Tg 5 °C, KPS/SFS, Nonionic surfactant", "value": 0}, {"measurement": "# of GABL Inoculations Passed", "setting": "GABL; DGH 200 ppm, emulsion VA/E/SVS/NMA, Tg 10 °C, TBHP/sodium erythorbate, Anionic sulfate surfactant", "value": 0}, {"measurement": "Inoculations Passed", "setting": "GABL; Tg 0 °C, biocide dosage 50 ppm active", "value": 1}, {"measurement": "Inoculations Passed", "setting": "GABL; Tg 0 °C, biocide dosage 100 ppm active", "value": 2}, {"measurement": "Inoculations Passed", "setting": "GABL; Tg 0 °C, biocide dosage 200 ppm active", "value": 7}, {"measurement": "Inoculations Passed", "setting": "mixed bacterial pool; active biocide dosage 100 ppm", "value": 2}, {"measurement": "Inoculations Passed", "setting": "mixed bacterial pool; active biocide dosage 200 ppm", "value": 7}]}
